Measurements from patent publication US20190010158A1, “ANTITUMOR EFFECT POTENTIATOR COMPRISING PYRROLOPYRIMIDINE COMPOUND” (TAIHO PHARMACEUTICAL CO., LTD, priority 2015, published 2019).
pIC50: −log10 of the molar value.

Legend:
U266B1 = assay: Example 1: combined use with proteasome inhibitor, cell growth inhibition test (IC50 ratio, CI), U266B1; format: cell-based, human; settings: for CI: at ED50
[1] = test system: human acute T lymphoblastic leukemia CCRF-CEM cell lines; assay: Cell growth inhibition 1 (CellTiter-Glo); format: cell-based; settings: culture with test compound 72 hours
[2] = test system: human colon cancer HCT116 cell line; assay: Cell growth inhibition 2, HCT116; format: cell-based; settings: HCT-116
[3] = test system: human pancreatic cancer Capan-1 cell line; assay: Cell growth inhibition 2, Capan-1; format: cell-based
[4] = test system: human lung cancer A-427 cell line; assay: Cell growth inhibition 2, A-427; format: cell-based
[5] = test system: human breast cancer MDA-MB-453 cell line; assay: Cell growth inhibition 2, MDA-MB-453; format: cell-based
[6] = test system: human prostate cancer LNCAP.FGC cell line; assay: Cell growth inhibition 2, LNCaP.FGC; format: cell-based
[7] = test system: human multiple myeloma U266B1 cell line; assay: Cell growth inhibition 2, U266B1; format: cell-based
[8] = test system: human skin cancer A-431 cell line; assay: Cell growth inhibition 2, A-431; format: cell-based
[9] = test system: human acute leukemia MV-4-11 cell line; assay: Cell growth inhibition 2, MV-4-11; format: cell-based; settings: MV4-11
[10] = test system: human diffuse large B-cell lymphoma DB cell line; assay: Cell growth inhibition 2, DB; format: cell-based
[11] = test system: tumor cell lines shown in Table 30; assay: Example 5: combined use with steroid, cell growth inhibition test (IC50 ratio, CI); settings: MM.1S; for IC50 Ratio: IC50 of Reference Example Compound 55 : IC50 of other compound = 1:value; for CI: at ED50; for Comprehensive Evaluation: combined use with Reference Example Compound 55
[12] = test system: tumor cell lines shown in Table 50; assay: Example 15: combined use with anthracycline-based antitumor agent, cell growth inhibition test (IC50 ratio, CI); settings: for IC50 Ratio: IC50 of Reference Example Compound 55 : IC50 of other compound = 1:value; for CI: at ED50; for Comprehensive Evaluation: combined use with Reference Example Compound 55
[13] = test system: tumor cell lines shown in Table 46; assay: Example 13: combined use with microtubule inhibitor, cell growth inhibition test (IC50 ratio, CI); format: cell-based; settings: A549; for IC50 Ratio: IC50 of Reference Example Compound 55 : IC50 of other compound = 1:value; for CI: at ED50; for Comprehensive Evaluation: combined use with Reference Example Compound 55
[14] = test system: human osteo- and soft tissue sarcoma SJCRH30 cell line; assay: Cell growth inhibition 2, SJCRH30; format: cell-based

Q: What does the source list for `CC(C)C[C@H](NC(=O)[C@H](CCc1ccccc1)NC(=O)CN1CCOCC1)C(=O)N[C@@H](Cc1ccccc1)C(=O)N[C@@H](CC(C)C)C(=O)[C@@]1(C)CO1` [Carfilzomib, carfilzomib]?
A: IC50 Ratio (U266B1; IC50 of Reference Example Compound 55 : IC50 of other compound = 1:value): 0.30; CI (U266B1; Reference Example Compound 55:other compound 1:015): 0.64; CI (U266B1; Reference Example Compound 55:other compound 1:045): 0.66; Comprehensive Evaluation (U266B1; combined use with Reference Example Compound 55): Synergism (0.3-0.7)

Q: How did the pIC50 [1] turn out when `NS(=O)(=O)OC[C@@H]1C[C@@H](n2ccc3c(N[C@H]4CCc5ccccc54)ncnc32)CC1O` (stereo partly drawn) [Comp. Example, N-[(1S)-1-indanyl]-7-[(1R)-3α-hydroxy-4α-(sulfamoyloxymethyl)cyclopentyl]-7H-pyrrolo[2,3-d]pyrimidin-4-amine] was run?
A: 7.05

Q: And the pIC50 [2]?
A: 7.05

Q: What about the pIC50 [3] of the same compound?
A: 5.82

Q: And the pIC50 [4]?
A: 6.74

Q: And the pIC50 [5]?
A: 5.72

Q: What about the pIC50 [6] of the same compound?
A: 6.39

Q: And the pIC50 [7]?
A: 5.85

Q: And the pIC50 [8]?
A: 6.12

Q: What about the pIC50 [9] of the same compound?
A: 6.96

Q: What about the pIC50 [10] of the same compound?
A: 6.25

Q: Which results are given for `C[C@@H]1C[C@H]2[C@@H]3CCC4=CC(=O)C=C[C@]4(C)[C@@]3(F)[C@@H](O)C[C@]2(C)[C@@]1(O)C(=O)CO` [Dexamethasone, dexamethasone]?
A: IC50 Ratio [11]: 0.4; CI ([11]; Reference Example Compound 55:other compound 1:0.3): 0.51; CI ([11]; Reference Example Compound 55:other compound 1:1): 0.39; Comprehensive Evaluation [11]: Synergism (0.3-0.7)

Q: What does the source list for `COc1cccc2c1C(=O)c1c(O)c3c(c(O)c1C2=O)C[C@@](O)(C(=O)CO)C[C@@H]3O[C@H]1C[C@H](N)[C@H](O)[C@H](C)O1` [Doxorubicin, doxorubicin]?
A: IC50 Ratio ([12]; HOS): 2; CI ([12]; HOS, Reference Example Compound 55:other compound 1:1.7): 0.77; CI ([12]; HOS, Reference Example Compound 55:other compound 1:5): 0.61; Comprehensive Evaluation ([12]; HOS): Moderate

Q: `C=C1C[C@@H]2CC[C@@]34C[C@H]5O[C@H]6[C@@H](O3)[C@H]3O[C@H](CC[C@@H]3O[C@H]6[C@H]5O4)CC(=O)C[C@@H]3[C@@H](OC)[C@@H](C[C@H](O)CN)O[C@H]3C[C@H]3O[C@@H](CC[C@@H]1O2)C[C@@H](C)C3=C` [Eribulin, eribulin] was tested. Which “IC50 Ratio” value [13] did it give?
A: 0.01

Q: And the CI ([13]; Reference Example Compound 55:other compound 1:0.01)?
A: 1.02

Q: What about the CI ([13]; Reference Example Compound 55:other compound 1:0.03) of the same compound?
A: 0.89

Q: And the “Comprehensive Evaluation” value [13]?
A: Additive (0.9-1.10)

Q: Which “IC50 Ratio” value [13] does the source give for `CC(=O)O[C@H]1C(=O)[C@@]2(C)[C@H]([C@H](OC(=O)c3ccccc3)[C@]3(O)C[C@H](OC(=O)[C@H](O)[C@@H](NC(=O)c4ccccc4)c4ccccc4)C(C)=C1C3(C)C)[C@]1(OC(C)=O)CO[C@@H]1C[C@@H]2O` [Paclitaxel, paclitaxel] here?
A: 0.04

Q: What about the CI ([13]; Reference Example Compound 55:other compound 1:0.02) of the same compound?
A: 0.98

Q: And the CI ([13]; Reference Example Compound 55:other compound 1:0.06)?
A: 0.77

Q: And the “Comprehensive Evaluation” value [13]?
A: Additive (0.9-1.10)

Q: `NCCNc1ccc(NCCN)c2c1C(=O)c1ccncc1C2=O` [Pixantrone, pixantrone] was tested. Which “IC50 Ratio” value ([12]; MM.1S) did it give?
A: 8.4

Q: What about the CI ([12]; MM.1S, Reference Example Compound 55:other compound 1:3.7) of the same compound?
A: 0.73

Q: And the CI ([12]; MM.1S, Reference Example Compound 55:other compound 1:11)?
A: 0.84

Q: And the “Comprehensive Evaluation” value ([12]; MM.1S)?
A: Moderate

Q: Which results are given for `C[C@]12C=CC(=O)C=C1CC[C@@H]1[C@@H]2[C@@H](O)C[C@@]2(C)[C@H]1CC[C@]2(O)C(=O)CO` [Prednisolone, prednisolone]?
A: IC50 Ratio [11]: 8.3; CI ([11]; Reference Example Compound 55:other compound 1:3.3): 0.54; CI ([11]; Reference Example Compound 55:other compound 1:10): 0.44; Comprehensive Evaluation [11]: Synergism (0.3-0.7)

Q: With `CNc1cc(F)c(C#Cc2cn([C@@H]3O[C@H](CNS(N)(=O)=O)[C@@H](O)[C@H]3O)c3ncnc(N)c23)c(F)c1` [Reference Example 25, 4-Amino-5-[2-[2,6-difluoro-4-(methylamino)phenyl]ethynyl]-7-[(2R,3R,4S,5R)-3,4-dihydroxy-5-[(sulfamoylamino)methyl]tetrahydrofuran-2-yl]pyrrolo[2,3-d]pyrimidine] as the compound, how does the pIC50 [1] read?
A: 8.77

Q: And the pIC50 [2]?
A: 8.19

Q: And the pIC50 [3]?
A: 6.42

Q: And the pIC50 [4]?
A: 8.27

Q: And the pIC50 [5]?
A: 6.32

Q: And the pIC50 [6]?
A: 6.30

Q: And the pIC50 [14]?
A: 5.29

Q: And the pIC50 [7]?
A: 6.66

Q: What about the pIC50 [8] of the same compound?
A: 6.92

Q: What about the pIC50 [9] of the same compound?
A: 7.96

Q: And the pIC50 [10]?
A: 6.92

Q: `Nc1ncnc2c1c(C#Cc1c(F)cc(N3CC[C@@H](F)C3)cc1F)cn2[C@@H]1O[C@H](CNS(N)(=O)=O)[C@@H](O)[C@H]1O` [Reference Example 29, 4-Amino-5-[2-[2,6-difluoro-4-[(3R)-3-fluoropyrrolidin-1-yl]phenyl]ethynyl]-7-[(2R,3R,4S,5R)-3,4-dihydroxy-5-[(sulfamoylamino)methyl]tetrahydrofuran-2-yl]pyrrolo[2,3-d]pyrimidine] was tested. Which pIC50 [1] did it give?
A: 8.40

Q: What about the pIC50 [2] of the same compound?
A: 7.85

Q: What about the pIC50 [3] of the same compound?
A: 6.25

Q: And the pIC50 [4]?
A: 7.31

Q: And the pIC50 [5]?
A: 6.19

Q: What about the pIC50 [6] of the same compound?
A: 6.55

Q: And the pIC50 [14]?
A: 5.18

Q: And the pIC50 [7]?
A: 6.38

Q: And the pIC50 [8]?
A: 6.25

Q: And the pIC50 [9]?
A: 7.70

Q: And the pIC50 [10]?
A: 6.82

Q: With `CN1CCOc2c1ccc(F)c2C#Cc1cn([C@@H]2O[C@H](CNS(N)(=O)=O)[C@@H](O)[C@H]2O)c2ncnc(N)c12` [Reference Example 64, 8-[2-[4-Amino-7-[(2R,3R,4S,5R)-3,4-dihydroxy-5-[(sulfamoylamino)methyl]tetrahydrofuran-2-yl]pyrrolo[2,3-d]pyrimidin-5-yl]ethynyl]-7-fluoro-4-methyl-2,3-dihydro-1,4-benzoxazine] as the compound, how does the pIC50 [1] read?
A: 8.24

Q: And the pIC50 [2]?
A: 7.85

Q: What about the pIC50 [3] of the same compound?
A: 5.92

Q: And the pIC50 [4]?
A: 7.04

Q: What about the pIC50 [5] of the same compound?
A: 6.85

Q: What about the pIC50 [6] of the same compound?
A: 6.17

Q: And the pIC50 [14]?
A: 6.25

Q: And the pIC50 [8]?
A: 6.15

Q: And the pIC50 [9]?
A: 7.49

Q: What about the pIC50 [10] of the same compound?
A: 6.96

Q: With `CN1CCOc2c1ccc(F)c2C#Cc1cn([C@@H]2C[C@H](CNS(N)(=O)=O)[C@@H](O)[C@H]2O)c2ncnc(N)c12` [Reference Example 122, 8-[2-[4-amino-7-[(1R,2S,3R,4R)-2,3-dihydroxy-4-[(sulfamoylamino)methyl]cyclopentyl]pyrrolo[2,3-d]pyrimidin-5-yl]ethynyl]-7-fluoro-4-methyl-2,3-dihydro-1,4-benzoxazine] as the compound, how does the pIC50 [1] read?
A: 8.06

Q: And the pIC50 [2]?
A: 7.74

Q: And the pIC50 [3]?
A: 6.05

Q: What about the pIC50 [4] of the same compound?
A: 7.66

Q: What about the pIC50 [5] of the same compound?
A: 7.12

Q: And the pIC50 [6]?
A: 6.29

Q: What about the pIC50 [14] of the same compound?
A: 6.89

Q: And the pIC50 [7]?
A: 6.57

Q: And the pIC50 [8]?
A: 5.80

Q: What about the pIC50 [9] of the same compound?
A: 7.42

Q: And the pIC50 [10]?
A: 6.92

Q: What does the source list for `CSc1cccc(F)c1C#Cc1cn([C@@H]2C=C(CNS(N)(=O)=O)[C@@H](O)[C@H]2O)c2ncnc(N)c12` [Reference Example 130, 4-Amino-7-[(1R,4R,5S)-4,5-dihydroxy-3-[(sulfamoylamino)methyl]cyclopent-2-en-1-yl]-5-[2-(2-fluoro-6-methylsulfanyl-phenyl)ethynyl]pyrrolo[2,3-d]pyrimidine]?
A: pIC50 [1]: 8.49; pIC50 [2]: 7.92; pIC50 [3]: 6.68; pIC50 [4]: 8.19; pIC50 [5]: 7.49; pIC50 [6]: 6.34; pIC50 [14]: 6.77; pIC50 [7]: 7.62; pIC50 [8]: 6.80; pIC50 [9]: 7.60; pIC50 [10]: 6.89
